Test results reported in patent US11685900B2, “Nanofiber-based long-term primary hepatocyte three-dimensional culture system and culturing method” (NANOFAENTECH CO., LTD., priority 2017, dated 2023).

Tested on: primary hepatocytes
Conditions: mouse, 24 h
Procedure: Fifty μL of the sample to be quantified and 100 μL of acetonitrile were mixed, centrifuged at 14000 rpm for 10 minutes and the obtained supernatant (130 μL) was dried in nitrogen gas and was dissolved in a solution (10 mM potassium phosphate:acetonitrile, 65%:35% (v/v)) and measured by HPLC (Shimazu Prominence LC-20A) at flow rate of 1 mL/min and at an absorbance of 245 nm for 10 minutes.

SMILES: CCOc1ccc(NC(C)=O)cc1 [phenacetin]
- decrease of the drug administered (50 μM): 75-85%
- concentration of phenacetin detected in the culture (500 μM): 350 to 400 µM
- concentration of phenacetin detected in the culture medium (500 μM): 350 µM
- concentration of phenacetin measured in the culture (500 μM): about 200 μM
